# Assay results as given in patent US8822430B2 (Gilead Sciences, Inc., priority 2009, dated 2014).
# Test system: HCV 1b RLuc cells (dicistronic genotype 1b Con1 replicon)
# Experiment: Renilla luciferase (RLuc)-based HCV replicon reporter assay
# Format: cell-based, HCV genotype 1b
# Conditions: HCV 1b RLuc replicon, 72 hours; read-out: Activity (antiviral potency [EC50])
# Protocol: Antiviral potency (EC50) was determined using a Renilla luciferase (RLuc)-based HCV replicon reporter assay. To perform the assay, HCV 1b RLuc cells (harboring a dicistronic genotype 1b Con1 replicon that encodes a RLuc reporter), or HCV 1a RLuc cells (harboring a dicistronic genotype 1a H77 replicon that encodes a RLuc reporter), were dispensed into 384-well plates. Compounds were re-suspended in DMSO at a concentration of 10 mM and serially diluted in DMSO using an automated pipeting instrument. Serially diluted compounds were mixed with cell culture media and added to the seeded cells. DMSO was used as a negative (solvent) control, and the protease inhibitor ITMN-191 was included at a concentration >100×EC50 as a positive control. 72 hours later, cells were lysed and Renilla luciferase activity quantified as recommended by the manufacturer (Promega-Madison, Wis.). Non-linear regression was performed to calculate EC50 values.
# Biological data (antiviral potency [EC50] was determined using a Renilla luciferase (RLuc)-based HCV replicon reporter assay—HCV 1b RLuc) for representative compounds of the invention is provided in the following table. These compounds can be prepared using procedures similar to those described above.
row,Structure (SMILES),EC50 [nM]
1,"COC(=O)N[C@H](C(=O)N1CCC[C@H]1c1ncc(-c2ccc(-c3ccc(-c4cnc([C@@H]5CSC(c6ccncc6)N5C(=O)OCc5ccccc5)[nH]4)cc3)cc2)[nH]1)C(C)C (single isomer, unassigned) [drawing 1301]",0.0765

# Same assay, conditions: Hepatitis C virus, 72 h, HCV 1b RLuc replicon, 72 hours; read-out: Activity (antiviral potency [EC50])
row,Structure (SMILES),EC50 [nM]
1,COC(=O)N[C@H](C(=O)N1CCC[C@H]1c1ncc(-c2ccc3c(c2)C(F)(F)c2cc(-c4ccc5nc([C@@H]6CCCN6C(=O)[C@@H](NC(=O)OC)C(C)C)[nH]c5c4)ccc2-3)[nH]1)C(C)C,< 0.0023
2,COC(=O)NC(C(=O)N1CCC[C@H]1c1ncc(-c2ccc(-c3ccc4cc(-c5cnc([C@@H]6CCCN6C(=O)[C@@H](NC(=O)OC)C(C)C)[nH]5)ccc4c3)cc2)[nH]1)C1CCS(=O)(=O)CC1 (stereo partly drawn),0.135
3,COC(=O)N[C@H](C(=O)N1CCC[C@H]1c1ncc(-c2ccc3cc(-c4ccc(-c5cnc([C@@H]6CCCN6C(=O)[C@@H](NC(=O)OC)C(C)C)[nH]5)cc4)ccc3c2)[nH]1)c1ccccc1,0.0305
4,COC(=O)N[C@@H](C)C(=O)N1[C@@H](c2ccccc2)CC[C@H]1c1ncc(-c2ccc(-c3ccc4cc(-c5cnc([C@@H]6CCCN6C(=O)[C@@H](NC(=O)OC)C(C)C)[nH]5)ccc4c3)cc2)[nH]1,0.788
5,COC(=O)N[C@H](C(=O)N1CCC[C@H]1c1ncc(-c2cc3c(C)c4sc(-c5cnc([C@@H]6CCCN6C(=O)[C@@H](NC(=O)OC)C6CCOCC6)[nH]5)cc4c(C)c3s2)[nH]1)C1CCOCC1,0.106
6,COC(=O)N[C@@H](CCC#N)C(=O)N1[C@@H]2CC[C@@H](C2)[C@H]1c1nc2ccc(-c3ccc4c(c3)C(F)(F)c3cc(-c5cnc([C@@H]6CC7(CC7)CN6C(=O)[C@@H](NC(=O)OC)C(C)C)[nH]5)ccc3-4)cc2[nH]1,0.006
7,COC(=O)N[C@H](C(=O)N1CCC[C@H]1c1ncc(-c2cc3c(OC)c4sc(-c5cnc([C@@H]6CCCN6C(=O)[C@@H](NC(=O)OC)C(C)C)[nH]5)cc4c(OC)c3s2)[nH]1)C(C)C,0.0161
8,COC(=O)N[C@H](C(=O)N1CCC[C@H]1c1ncc(-c2ccc3cc(-c4ccc(-c5cnc([C@@H]6[C@H]7CC[C@H](C7)N6C(=O)[C@@H](NC(=O)OC)C(C)C)[nH]5)cc4)ccc3c2)[nH]1)C(C)C,0.006
9,COC(=O)N[C@H](C(=O)N1CC2(C[C@H]1c1ncc(-c3ccc(-c4ccc(-c5cnc([C@@H]6CC7(CN6C(=O)[C@@H](NC(=O)OC)C(C)C)OCCO7)[nH]5)cc4)cc3)[nH]1)OCCO2)C(C)C,0.105
10,COC(=O)N[C@H](C(=O)N1CCC[C@H]1c1ncc(-c2ccc(Oc3ccc(-c4cnc([C@@H]5CCCN5C(=O)[C@@H](NC(=O)OC)C(C)C)[nH]4)cc3)cc2)[nH]1)C(C)C,> 21.3
11,COC(=O)N[C@H](C(=O)N1CCC[C@H]1c1ncc(-c2ccc3cc(C#Cc4ccc5nc([C@@H]6[C@H]7CC[C@H](C7)N6C(=O)[C@@H](NC(=O)OC)C(C)C)[nH]c5c4)ccc3c2)[nH]1)C(C)C,0.0195
12,COC(=O)N[C@H](C(=O)N1CCC[C@H]1c1ncc(-c2cc3c(OC)c4sc(-c5cnc([C@@H]6CCCN6C(=O)[C@@H](NC(=O)OC)C6CCOCC6)[nH]5)cc4c(OC)c3s2)[nH]1)C1CCOCC1,0.419
13,COC(=O)N[C@H](C(=O)N1CCC[C@H]1c1ncc(-c2ccc(-c3ccc4cc(-c5cnc([C@@H]6CCCN6C(=O)[C@@H](NC(=O)OC)C(C)C)[nH]5)ccc4c3)cc2)[nH]1)c1ccsc1,0.0906
14,COC(=O)N[C@H](C(=O)N1CCC[C@H]1c1ncc(-c2ccc3cc(-c4ccc(-c5cnc([C@@H]6CCCN6C(=O)[C@@H](NC(=O)OC)C6Cc7ccccc7C6)[nH]5)cc4)ccc3c2)[nH]1)C(C)C,0.0104
15,COC(=O)N[C@H](C(=O)N1CC2(CC2)C[C@H]1c1ncc(-c2ccc(-c3ccc4cc(-c5cnc([C@@H]6[C@H]7CC[C@H](C7)N6C(=O)[C@@H](NC(=O)OC)C6CC6)[nH]5)ccc4c3)cc2)[nH]1)C(C)C,0.0534
16,COC(=O)N[C@H](C(=O)N1C[C@@H](C#N)C[C@H]1c1ncc(-c2ccc3cc(-c4ccc(-c5cnc([C@@H]6[C@H]7CC[C@H](C7)N6C(=O)[C@@H](NC(=O)OC)C(C)C)[nH]5)cc4)ccc3c2)[nH]1)C(C)C,0.0097
17,COC(=O)NC(C(=O)N1CCC[C@H]1c1ncc(-c2cc3sc(-c4ccc(-c5cnc([C@@H]6CCCN6C(=O)[C@H](NC(=O)OC)c6ccccc6)[nH]5)cc4)cc3s2)[nH]1)C(C)C (stereo partly drawn),0.0059
18,COC(=O)N[C@H](C(=O)N1CC2(CC2)C[C@H]1c1ncc(-c2ccc3cc(-c4ccc(-c5cnc([C@@H]6C[C@H](C#N)CN6C(=O)[C@@H](NC(=O)OC)C(C)(C)C)[nH]5)cc4)ccc3c2)[nH]1)C(C)C,0.0127
19,COC(=O)N[C@H](C(=O)N1CCC[C@H]1c1ncc(-c2ccc3c(c2)C(=O)c2cc(-c4ccc5nc([C@@H]6[C@H]7CC[C@H](C7)N6C(=O)[C@@H](NC(=O)OC)C(C)C)[nH]c5c4)ccc2-3)[nH]1)C(C)C,0.006

row,Structure (SMILES),EC50 [nM]
1,COC(=O)N[C@H](C(=O)N1CC2(CC2)C[C@H]1c1ncc(-c2ccc3c(c2)oc2cc(-c4ccc5nc([C@@H]6[C@H]7CC[C@H](C7)N6C(=O)[C@@H](NC(=O)OC)C(C)C)[nH]c5c4)ccc23)[nH]1)C(C)C,0.0041
2,COC[C@@H]1C[C@@H](c2ncc(-c3ccc(-c4ccc5cc(-c6cnc([C@@H]7CC8(CC8)CN7C(=O)[C@@H](NC(=O)OC)C(C)C)[nH]6)ccc5c4)cc3)[nH]2)N(C(=O)[C@@H](NC(=O)OC)C(C)C)C1,0.0092
3,COC(=O)NC(C(=O)N1CCC[C@H]1c1ncc(-c2cc3c(C)c4sc(-c5cnc([C@@H]6CCCN6C(=O)C(NC(=O)OC)c6ccccc6)[nH]5)cc4c(C)c3s2)[nH]1)c1ccccc1 (stereo partly drawn),0.0214
4,COC(=O)N[C@@H](CCOC(F)F)C(=O)N1[C@@H]2CC[C@@H](C2)[C@H]1c1ncc(-c2ccc(-c3ccc4cc(-c5cnc([C@@H]6CC7(CC7)CN6C(=O)[C@@H](NC(=O)OC)C(C)C)[nH]5)ccc4c3)cc2)[nH]1,0.008
5,COC(=O)N[C@H](C(=O)N1CCC[C@H]1c1ncc(-c2ccc(-c3ccc(-c4cnc([C@@H]5CCCN5C(=O)[C@@H](NC(=O)OC)C(C)(C)S(C)(=O)=O)[nH]4)cc3)cc2)[nH]1)C(C)C,0.161
6,COC(=O)N[C@H](C(=O)N1CCC[C@H]1c1ncc(-c2ccc(-c3ccc(-c4cnc([C@@H]5CN(c6ccccc6)CN5C(=O)[C@@H](NC(=O)OC)C(C)C)[nH]4)cc3)cc2)[nH]1)C(C)C,0.0074
7,COC(=O)N[C@H](C(=O)N1CCC[C@H]1c1ncc(-c2ccc3c(c2)CN(C)Cc2cc(-c4cnc([C@@H]5CCCN5C(=O)[C@@H](NC(=O)OC)C(C)C)[nH]4)ccc2-3)[nH]1)C(C)C,11.1
8,COC(=O)N[C@H](C(=O)N1CCC[C@H]1c1ncc(-c2ccc(C#Cc3ccc(-c4cnc([C@@H]5[C@H]6CC[C@H](C6)N5C(=O)[C@@H](NC(=O)OC)C(C)C)[nH]4)cc3)cc2)[nH]1)C(C)C,0.073
9,CN[C@H](C(=O)N1CCC[C@H]1c1nc2ccc(-c3ccc(-c4ccc(-c5ccc6nc([C@@H]7CCCN7C(=O)[C@@H](NC(=O)OC)C(C)C)[nH]c6c5)cc4)cc3)cc2[nH]1)C(C)C,0.0441
10,COC(=O)N[C@H](C(=O)N1CCC[C@H]1c1ncc(-c2ccc(-c3cccc4c(-c5ccc(-c6cnc([C@@H]7CCCN7C(=O)[C@@H](NC(=O)OC)C(C)C)[nH]6)cc5)cccc34)cc2)[nH]1)C(C)C,26.7
11,COC(=O)N[C@H](C(=O)N1CCC[C@H]1c1ncc(-c2ccc3cc(-c4ccc(-c5cnc([C@@H]6CCCN6C(=O)[C@H](NC(=O)OC)c6ccccc6)[nH]5)cc4)ccc3c2)[nH]1)C(C)C,0.0081
12,COC(=O)N[C@H](C(=O)N1C[C@@H](C#N)C[C@H]1c1ncc(-c2ccc3cc(-c4ccc(-c5cnc([C@@H]6CC7(CC7)CN6C(=O)[C@@H](NC(=O)OC)C(C)C)[nH]5)cc4)ccc3c2)[nH]1)C(C)C,0.0169
13,COC(=O)N[C@H](C(=O)N1CCC[C@H]1c1ncc(-c2ccc(-c3ccc(-c4ccc(-c5cnc([C@@H]6CCCN6C(=O)[C@@H](NC(=O)OC)C(C)C)[nH]5)cc4)s3)cc2)[nH]1)C(C)C,0.0989
14,COC(=O)N[C@@H](C)C(=O)N1CCC[C@H]1c1ncc(-c2ccc3cc(-c4ccc5cc(-c6cnc([C@@H]7[C@H]8CC[C@H](C8)N7C(=O)[C@@H](NC(=O)OC)C(C)C)[nH]6)ccc5c4)ccc3c2)[nH]1,1.15
15,COC(=O)N[C@H](C(=O)N1CC2(CC2)C[C@H]1c1ncc(-c2ccc(-c3ccc4cc(-c5cnc([C@@H]6CC7(CC7)CN6C(=O)[C@@H](NC(=O)OC)C(C)C)[nH]5)ccc4c3)cc2)[nH]1)C(C)C,0.0048
16,COC(=O)NC(C(=O)N1CCC[C@H]1c1ncc(-c2ccc(-c3ccc4cc(-c5cnc([C@@H]6CCCN6C(=O)[C@@H](NC(=O)OC)C(C)C)[nH]5)ccc4c3)cc2)[nH]1)c1ccccc1C (stereo partly drawn),0.0117
17,COC(=O)N[C@H](C(=O)N1CC2(CC2)C[C@H]1c1ncc(-c2ccc3cc(-c4ccc(-c5cnc([C@@H]6[C@H]7CC[C@H](C7)N6C(=O)[C@@H](NC(=O)OC)C6CCOCC6)[nH]5)cc4)ccc3c2)[nH]1)C1CCOCC1,0.0255
18,COC(=O)N[C@@H](C)C(=O)N1CCC[C@H]1c1ncc(-c2ccc3c(c2)CCc2cc(-c4cnc([C@@H]5[C@H]6CC[C@H](C6)N5C(=O)[C@H](C)NC(=O)OC)[nH]4)ccc2-3)[nH]1,0.0368

# Same assay, conditions: Hepatitis C virus, 72 h, read-out: Activity (antiviral potency [EC50])
row,Structure (SMILES),EC50 [nM]
1,COC(=O)N[C@H](C(=O)N1CCC[C@H]1C(=O)Nc1ccc(NC(=O)c2ccc(NC(=O)[C@@H]3CCCN3C(=O)[C@@H](NC(=O)OC)C(C)C)cc2)cc1)C(C)C,37.8
